The source of these data is patent US20040191207A1, “ALPHA-HYDROXY ACID ESTER DRUG DELIVERY COMPOSITIONS AND METHODS OF USE” (priority 2003, published 2004).

The procedure of data set [1]: Various pharmaceutical drug actives and prodrugs were screened to test for solubility in the compositions including alpha-hydroxy acid esters. Solubility was determined by adding various amounts of the drug to a composition including alpha-hydroxy acid esters, mixing, and then visually determining the solubility. The composition selected for the screening was Imwitor™ 380, a partially neutralized mixture of citric acid/lactic acid esters of partial glycerides. Imwitor™ 380 contains approximately 60% citric acid/lactic acid esters of partial glycerides, less than 32% 1-monoglyceride, and not more than 5% glycerol (Product Information Sheet, 26.13.199e/07.98; Sasol).
Mixtures were based on weight/weight and ranged from 5% drug/95% Imwitor™ 380 to 15% drug/85% Imwitor™ 380. The samples were prepared in 12 ml glass vials, containing a stirbar to ensure adequate mixing, and sealed with Teflon lined caps (National Scientific Co.; vial: part no B7800-12; cap: 15-425).

The procedure of data set [2]:
Mixtures were based on weight/weight and ranged from 5% drug/95% unneutralized Imwitor™ 380 to 10% drug/90% unneutralized Imwitor™ 380. The samples were prepared in scintillation vials (Research Products International) containing a stirbar to ensure adequate mixing.
The source holds these as a separate data set.

Like-named read-outs stand apart in the source and are kept apart here.

As for `CCOC(=O)C(C)(C)Oc1ccc(Cl)cc1` [Clofibrate, clofibrate], the Solubility in data set [1] is over 150 mg/gm; in data set [2], over 100 mg/gm.

`CCCC(CCC)C(=O)O` [Valproic Acid, valproic acid]: the Solubility is over 150 mg/gm in data set [1] and over 100 mg/gm in data set [2].
